Results taken from patent publication US20050107616A1, “Alpha-ketoamide derivatives as cathepsin k inhibitors” (priority 2001, published 2005).
pKi: −log10 of the molar value.

What was measured:
Assay type in all cases: biochemical
[1] = molecular target: human cathepsin V (Homo sapiens, UniProt O60911); assay: Cathepsin V inhibition assay, fluorogenic substrate Cbz-Phe-Arg-AMC; settings: Table 2; human recombinant enzyme, pH 5.5, 30° C., 2 μM substrate; read-out: hCat V Ki
Experimental: (§1) All assays for cathepsin K were carried out with human and rat recombinant enzyme. Assays for cathepsins S Et V were also carried out with human recombinant enzyme. Assays for human cathepsins B. H. and L were carried out with enzyme, purchased from Athens Research and Technology, Inc., prepared from human liver tissue. Standard assay conditions for the determination of kinetic constants used a fluorogenic peptide substrate, typically (5S,8S)-13-amino-5-benzyl-13-imino-3-methylene-N-(4methyl-2-oxo-2H-chromen-7-yl)-6-oxo-1-phenyl-2-oxa-4,7,12-triazatridecane-8-carboxamide (Cbz-Phe-Arg-AMC), and were determined in 100 mM sodium acetate at pH 5.5 containing 10 mM dithiothreitol and 120 mM sodium chloride. A stock substrate solution of Cbz-Phe-Arg-AMC was prepared at a concentration of 50 mM in dimethyl sulfoxide. This substrate was diluted into the assay for a final substrate concentration of 10 μM in the rat cathepsin K, human cathepsin K, and human cathepsin B assays; a final substrate concentration of 5 μM in the human cathepsin L assay; and a final substrate concentration of 2 μM in the human cathepsin V assay.
(§2) All assays contained 10% dimethyl sulfoxide. […] All assays were conducted at 30° C. Product fluorescence (excitation at 360 nm; emission at 440 nm, (except cathepsin H which used excitation at 340 nm; emission at 420 nm)) was monitored with a PerSeptive Biosystems Cytofluor II fluorescence plate reader. Product progress curves were generated over 2.3 h monitoring the formation of 7-amino-4-methylcoumarin product (or β-naphthalamide for cathepsin H).
(§3) Potential inhibitors were evaluated using the progress curve method. Assays were carried out in the presence of variable concentrations of test compound. Reactions were initiated by addition of buffered solutions of inhibitor and substrate to enzyme. Data analysis was conducted according to one of two procedures depending on the appearance of the progress curves in the presence of inhibitors. For those compounds whose progress curves were linear, the enzymatic activity (RATE) was plotted against the concentration of test compound, including inhibitor concentration of zero ([I]=0), and the IC50 determined from a fit of equation 1 to the data, RATE=Vmax/(1+([I]/IC50)) (1) where Vmax is the best fit estimate of the maximal enzymatic activity. Ki values were calculated from IC50 values using equation 2 assuming a competitive model. [formula]

[2] = molecular target: human cathepsin L (Homo sapiens, UniProt P07711); assay: Cathepsin L inhibition assay, fluorogenic substrate Cbz-Phe-Arg-AMC; settings: Table 2; enzyme from human liver tissue, pH 5.5, 30° C., 5 μM substrate; read-out: hCat L Ki
Experimental: as §1, §2, §3

[3] = molecular target: T1, rat cathepsin K (Rattus norvegicus, UniProt O35186); assay: Cathepsin K inhibition assay, fluorogenic substrate Cbz-Phe-Arg-AMC, progress curve method; settings: Table 2; rat recombinant enzyme, pH 5.5, 30° C., 10 μM substrate; read-out: rCat K Ki
T1 construct: The proform of cathepsin K was converted to mature cathepsin K by brief exposure to pH 4; made in house; host or cells: baculovirus; Trichoplusia ni High Five cells (virus raised in Sf-9)
T1 sequence (O35186 115-329): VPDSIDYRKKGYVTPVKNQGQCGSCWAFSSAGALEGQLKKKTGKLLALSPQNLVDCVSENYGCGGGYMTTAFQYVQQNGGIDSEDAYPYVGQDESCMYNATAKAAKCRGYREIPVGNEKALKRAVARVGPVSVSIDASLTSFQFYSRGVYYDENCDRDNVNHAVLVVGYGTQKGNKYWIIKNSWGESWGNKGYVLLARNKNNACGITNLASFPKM
Experimental: as §1, §2
Scale-Up and Fermentation: The method of O'Reilly et al. (1994) was used for baculovirus expression with the following details. Two liters of Spodoptera frugiperda (Sf-9) cells (ATCC) were grown in Grace's Supplemented medium (Life Technologies) supplemented with 2 g/L glucose, 10% a fetal bovine serum (HyClone) and 0.10% pluronic F-68 (Life Technologies). Cells were grown in a 6 L shake flask at 150 RPM at 28° C. for 24 h to a density of 10^6 cells/mL, and then infected at a multiplicity of infection (MOI) of 0.1. The cells continued to grow for 72 h post-infection, before the virus was harvested by centrifugation at 1400× g for 30 min. Virus was titered as described (Summers and Smith, 1987).
One and one-half liters of Trichoplusia ni (T. ni) High Five (TM) cells [JRH Biosciences, Woodland, Calif. (adapted to suspension and serum-free medium)] grown in Excell 405 (TM) medium (JRH Biosciences) with 50 ug/mL gentamicin (Life Technologies) were added to a 15 L stirred tank reactor (Quark Enterprises, Inc) at a density of ˜0.5×10^6 cells/mL The cells were grown for 24 h at 28° C., 50 RPM, and 50% dissolved oxygen. Cells were then infected at a density of ˜10^6 cells/mL with an MOI of 1 and grown for 48 h post-infection. Media were separated from cells at a rate of 1 L/min using the Centritech 100 (TM) continuous-flow centrifuge (DuPont) operating at 200× g.
Protein Purification: Media (human and rat) were filtered through a Whatman 3 filter, and then loaded onto a 25 mL Poros HS II (26 mm×47 mm) cation exchange column equilibrated in 25 mM sodium acetate at pH 5.5 (equilibration buffer). The column was washed until the absorbance reached the baseline value, and then the protein was eluted with a linear gradient from 0-2 M sodium chloride in the equilibration buffer. Column fractions were analyzed by SDS-PAGE, N-terminal sequencing, and mass spectrometry. Fractions containing the proform of cathepsin K were pooled and frozen at −80° C. The proform was concentrated in an Amicon Centriprep 10 and fractionated with a Superdex 75 column (26 mm×600 mm, Pharmacia) equilibrated in 400 mM sodium chloride, 25 mM sodium acetate at pH 5.5.
Cathepsin K Activation: The proform of cathepsin K was converted to mature cathepsin K by brief exposure to pH 4 in the presence of 5 mM L-cysteine. […]

Chain of human cathepsin V (O60911 114-334): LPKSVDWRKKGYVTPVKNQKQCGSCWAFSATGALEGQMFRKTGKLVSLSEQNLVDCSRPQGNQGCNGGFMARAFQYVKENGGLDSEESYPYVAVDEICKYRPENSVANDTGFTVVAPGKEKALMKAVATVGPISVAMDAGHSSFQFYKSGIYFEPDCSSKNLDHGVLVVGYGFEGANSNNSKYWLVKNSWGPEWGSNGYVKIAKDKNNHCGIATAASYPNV
Chain of human cathepsin L (P07711 114-288 limits assumed): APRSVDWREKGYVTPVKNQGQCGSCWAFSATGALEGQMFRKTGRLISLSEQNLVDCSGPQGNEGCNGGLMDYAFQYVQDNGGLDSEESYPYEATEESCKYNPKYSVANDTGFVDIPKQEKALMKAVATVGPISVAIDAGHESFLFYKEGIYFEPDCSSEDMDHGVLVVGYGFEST
Chain of human cathepsin L (P07711 292-333 limits assumed): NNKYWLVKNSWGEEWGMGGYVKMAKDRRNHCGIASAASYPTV

SMILES	pKi [1]	pKi [2]	pKi [3]
CCCC[C@H](NC(=O)O[C@H](Cc1nnc(-c2ccc(F)cc2)o1)C(C)(C)C)C(=O)C(=O)Nc1ccnn1C (stereo in doubt) [Example 22, (1R)-1-{[5-(4-fluorophenyl)-1,3,4-oxadiazol-2-yl]methyl}-2,2-dimethylpropyl(1S)-1-[[(1-methyl-1H-pyrazol-5-yl)amino](oxo)acetyl]pentyl carbamate]	5.00 to 7.00	5.00 to 7.00	5.00 to 7.00
CCCC[C@H](NC(=O)O[C@H](Cn1ccc(-c2ccc(C(F)(F)F)cc2)n1)C(C)(C)C)C(=O)C(=O)Nc1ccn[nH]1 [Example 1]	9.00 to 11.00	7.00 to 9.00	9.00 to 11.00
CCCC[C@H](NC(=O)O[C@H](Cn1cnc(-c2ccc(C(F)(F)F)cc2)c1)C(C)(C)C)C(=O)C(=O)Nc1ccn[nH]1 [Example 7, (1S)-2,2-dimethyl-1-({4-[4-(trifluoromethyl)phenyl]-1H-imidazol-1-yl}methyl)propyl(1S)-1-[oxo(1H-pyrazol-5-ylamino)acetyl]pentylcarbamate]	9.00 to 11.00	7.00 to 9.00	9.00 to 11.00
CCCC[C@H](NC(=O)O[C@H](Cn1cnc(-c2ccc(C(F)(F)F)cc2)c1)C(C)(C)C)C(=O)C(=O)Nc1ccnn1C1CCC1 [Example 35, (1S)-2,2-dimethyl-1-({4-[4-(trifluoromethyl)phenyl]-1H-imidazol-1-yl}methyl)propyl(1S)-1-[[(1-cyclobutyl-1H-pyrazol-5-yl)amino](oxo)acetyl]pentylcarbamate]	7.00 to 9.00	5.00 to 7.00	7.00 to 9.00
CCCC[C@H](NC(=O)O[C@H](Cn1cnc2cc(Cl)c(Cl)cc21)C(C)(C)C)C(=O)C(=O)Nc1ccn[nH]1 [Example 37, (1S)-1-[(5,6-dichloro-1H-benzimidazol-1-yl)methyl]-2,2-dimethylpropyl(1S)-1-[oxo(1H-pyrazol-5-ylamino)acetyl]pentylcarbamate]	9.00 to 11.00	9.00 to 11.00	9.00 to 11.00
CCCC[C@H](NC(=O)O[C@H](c1nnc(-c2ccc(C(F)(F)F)cc2)o1)C(C)(C)C)C(=O)C(=O)Nc1ccn[nH]1 [Example 38, (1S)-2,2-dimethyl-1-{5-[4-(trifluoromethyl)phenyl]-1,3,4-oxadiazol-2-yl}propyl(1S)-1-[oxo(1H-pyrazol-5-ylamino)acetyl]pentylcarbamate]	7.00 to 9.00	7.00 to 9.00	7.00 to 9.00
CCCC[C@H](NC(=O)O[C@H](c1nnc(-c2ccc(C(F)(F)F)cc2)o1)C(C)(C)C)C(=O)C(=O)NN1CCOC1=O [Example 39, (1S)-2,2-dimethyl-1-{5-[4-(trifluoromethyl)phenyl]-1,3,4-oxadiazol-2-yl}propyl(1S)-1-{oxo[(2-oxo-1,3-oxazolidin-3-yl)amino]acetyl}pentylcarbamate]	7.00 to 9.00	7.00 to 9.00	7.00 to 9.00
